In US20240398787A1, “TREATMENT OF MAJOR DEPRESSIVE DISORDER” (AbbVie Inc., priority 2021, published 2024):
Read-outs that look alike come from different tables or passages of the source.

Experiments:
[1] = tested on: patients with major depressive disorder (MDD); assay: Hamilton Anxiety Rating Scale (HAM-A) total score, Clinical Study A; format: in vivo, human; details: for LS mean change from baseline to week 6, HAM-A / LSMD vs placebo, HAM-A: MMRM; for HAM-A remission rate (total score ≤7) / HAM-A remission, odds ratio vs placebo / HAM-A response rate (≥50% score reduction from baseline) / HAM-A response, odds ratio vs placebo / LSMD vs placebo, HAM-A: week 6; for HAM-A remission rate (total score ≤7) / HAM-A remission, odds ratio vs placebo / HAM-A response rate (≥50% score reduction from baseline) / HAM-A response, odds ratio vs placebo: LOCF
Protocol: (§1) A global, multicenter, randomized, double-blind (DB), placebo-controlled, parallel-group, fixed-dose study compared cariprazine 1.5 mg/day and cariprazine 3 mg/day with placebo as an adjunctive treatment to ongoing ADT in outpatients with a diagnosis of MDD (via the Diagnostic and Statistical Manual of Mental Disorders, Fifth Edition [DSM-5]) having an inadequate response, as measured by the modified Antidepressant Treatment Response Questionnaire (ATRQ), to 1 to 3 antidepressants administered during the current episode at an adequate dose and adequate duration. Adequate dose was defined as a dose above the minimum labeled dose (per package insert). Adequate duration was defined as continuous ADT treatment for at least 6 weeks, with a minimum of 3 of 6 weeks above the minimal dose.
(§2) The study consisted of up to 14 days screening (with up to an additional 7 days of needed) and washout of prohibited medications followed by 6 weeks of double-blind (DB) treatment followed by a 4-week safety follow-up. At the end of the screening period, patients meeting the entry criteria for the study were randomized (1:1:1) to 1 of 3 double-blind treatment groups. Study treatment groups were: cariprazine 1.5 mg/day+antidepressant therapy and cariprazine 3 mg/day+antidepressant therapy. The control group received matching placebo+antidepressant therapy.
(§3) Dosage/Dose Regimen: Investigational product (cariprazine or placebo) in the form of capsules packaged in blister packs will be provided. No investigational product was administered during the screening/washout period; patients continued the same antidepressant and dose they were on at screening. Patients were taking more than one antidepressant at screening, regardless of the indication, discontinued all other antidepressants prior to baseline (Visit 2). During the double-blind treatment period (6 weeks), patients were administered 1 capsule orally per day in addition to their ongoing ADT. Patients in the 1.5 mg/day+ADT arm were administered 1.5 mg+ADT starting at Visit 2 (Week 0). Patients in the 3 mg/day+ADT arm were administered 1.5 mg+ADT starting at Visit 2 (Week 0) for 2 weeks and then titrate to 3 mg/day+ADT starting at Visit 4 (Week 2). Patients were supplied with identically appearing capsules of either cariprazine 1.5 mg, cariprazine 3 mg, or placebo.
(§4) A randomized, double-blind, placebo-controlled, multicenter trial with 759 participants was conducted in United States, Bulgaria, Estonia, Germany, Hungary, Ukraine, and the United Kingdom. Following a screening period of up to 14 days (with up to an additional 7 days if needed), which included a washout of prohibited psychotropic medications except for ongoing ADT, patients with a partial response to their antidepressant monotherapy were randomized into three treatment groups (1:1:1). One group received cariprazine 1.5 mg/d+ADT, one received cariprazine 3.0 mg/d+ADT, and one group received placebo+ADT. All participants randomized to cariprazine began on 1.5 mg/d; cariprazine 1.5 mg/d patients remained at that dosage, while cariprazine 3.0 mg/d patients received 1.5 mg/d for 2 weeks and increased to 3.0 mg/d on day 15.
The primary and secondary efficacy parameters were change from baseline to week 6 in Montgomery-Åsberg Depression Rating Scale (MADRS) total score and Clinical Global Impressions-Severity (CGI-S) score, respectively (screening, baseline, and weeks 1, 2, 4, and 6). Additional efficacy parameters (screening, baseline, and ≥1 double-blind visit) included: MADRS response (≥50% MADRS total score reduction) and remission (MADRS total score ≤10); change from baseline in HAMD-17 total score and Hamilton Anxiety Rating Scale (HAM-A) total score (32); and Clinical Global Impressions-Improvement (CGI-I) score and response (CGI-I score ≤2).
The Hamilton Anxiety Rating Scale (HAM-A) (Hamilton 1959) is a clinician-rated scale which consists of 14 items, each rated on a 5-point scale ranging from 0 (not present) to 4 (very severe). […]

[2] = tested on: patients with major depressive disorder (MDD); assay: Adverse events and discontinuations during double-blind treatment period, Clinical Study A; format: in vivo, human; details: for TEAE: Akathisia / TEAE: Headache / TEAE: Insomnia / TEAE: Nausea / TEAE: Somnolence: N = 252; for Deaths: safety population; for Treatment-emergent adverse events (TEAEs): safety population N = 252
Protocol: as §1, §2, §3
as §4, with “Following” for “A randomized, double-blind, placebo-controlled, multicenter trial with 759 participants was conducted in United States, Bulgaria, Estonia, Germany, Hungary, Ukraine, and the United Kingdom. Following”
Table 15 summarizes the most frequent TEAEs occurring in ≥5% in any treatment group, and Table 16 summarizes changes in weight. An AE was considered a treatment-emergent adverse event (TEAE) if the AE began or worsened (increased in severity or became serious) on or after the first dose of double-blinded investigational product.

[3] = tested on: MDD patients who had inadequate response to ongoing antidepressant treatment; details: adjunctive, Durgam et al. 2016, cited from earlier work
[4] = 1.5 mg/day + ADT, double-blind period
[5] = 1.5 mg/day + ADT, randomized population N = 252
[6] = 3.0 mg/day + ADT, double-blind period
[7] = 3 mg/day + ADT, randomized population N = 253

SMILES: CN(C)C(=O)N[C@H]1CC[C@H](CCN2CCN(c3cccc(Cl)c3Cl)CC2)CC1 [Cariprazine, trans-N-{4-[2-[4-(2,3-dichlorophenyl)piperazin-1-yl]ethyl]cyclohexyl}-N′,N′-dimethylurea]
- LS mean change from baseline to week 6, HAM-A ([1]; 1.5 mg/d + ADT): −9.1
- HAM-A remission rate (total score ≤7) ([1]; 1.5 mg/d + ADT): 28.7%
- HAM-A remission, odds ratio vs placebo ([1]; 1.5 mg/d + ADT): 1.2
- HAM-A response rate (≥50% score reduction from baseline) ([1]; 1.5 mg/d + ADT): 40.9%
- HAM-A response, odds ratio vs placebo ([1]; 1.5 mg/d + ADT): 1.3
- LSMD vs placebo, HAM-A ([1]; 1.5 mg/d + ADT): −1.3
- LS mean change from baseline to week 6, HAM-A ([1]; 3 mg/d + ADT): −8.6
- HAM-A remission rate (total score ≤7) ([1]; 3.0 mg/d + ADT): 27.9%
- HAM-A remission, odds ratio vs placebo ([1]; 3.0 mg/d + ADT): 1.1
- HAM-A response rate (≥50% score reduction from baseline) ([1]; 3.0 mg/d + ADT): 41.0%
- HAM-A response, odds ratio vs placebo ([1]; 3.0 mg/d + ADT): 1.3
- LSMD vs placebo, HAM-A ([1]; 3 mg/d + ADT): −0.8
- TEAE: Akathisia ([2]; 1.5 mg/day + ADT): 13 (5.2) n (%)
- TEAE: Headache ([2]; 1.5 mg/day + ADT): 22 (8.7) n (%)
- TEAE: Insomnia ([2]; 1.5 mg/day + ADT): 18 (7.1) n (%)
- TEAE: Nausea ([2]; 1.5 mg/day + ADT): 20 (7.9) n (%)
- TEAE: Somnolence ([2]; 1.5 mg/day + ADT): 13 (5.2) n (%)
- Any Extrapyramidal Symptoms (EPS) TEAEs [2, 4]: 25 (9.9) n (%)
- Treatment-emergent Serious AE (TESAE) [2, 4]: 1 (0.4) n (%)
- Deaths [2, 4]: 0 n (%)
- Treatment-emergent adverse events (TEAEs) [2, 4]: 125 (49.6) n (%)
- Premature discontinuation due to Death [2, 5]: 0 n (%)
- Premature discontinuation due to Lack of Efficacy [2, 5]: 2 (0.8) n (%)
- TEAE: Akathisia ([2]; 3.0 mg/day + ADT): 20 (7.9) n (%)
- TEAE: Headache ([2]; 3.0 mg/day + ADT): 11 (4.4) n (%)
- TEAE: Insomnia ([2]; 3.0 mg/day + ADT): 16 (6.3) n (%)
- TEAE: Nausea ([2]; 3.0 mg/day + ADT): 16 (6.3) n (%)
- TEAE: Somnolence ([2]; 3.0 mg/day + ADT): 11 (4.4) n (%)
- Any Extrapyramidal Symptoms (EPS) TEAEs [2, 6]: 38 (15.1) n (%)
- TEAE leading to discontinuation from study [2, 6]: 18 (7.1) n (%)
- Treatment-emergent Serious AE (TESAE) [2, 6]: 1 (0.4) n (%)
- Deaths [2, 6]: 0 n (%)
- Treatment-emergent adverse events (TEAEs) [2, 6]: 124 (49.2) n (%)
- Premature discontinuation due to Adverse Event [2, 7]: 18 (7.1) n (%)
- Premature discontinuation due to Death [2, 7]: 0 n (%)
- Premature discontinuation due to Lack of Efficacy [2, 7]: 0 n (%)
- Most common adverse events occurring at ≥5% in the cariprazine groups ([2]; six-week study period): akathisia, nausea, insomnia, headache and somnolence
- Safety results (overall) ([2]; six-week study period): no new safety signals identified
- LSMD vs placebo, MADRS total score ([3]; 1-2 mg per day variable dosing): −0.9
- LSMD vs placebo, MADRS total score ([3]; 2-4.5 mg per day variable dosing): −2.2
